{"source": "patent US12383534B2", "about": "“Methods for treating cancer” (REGENTS OF THE UNIVERSITY OF MINNESOTA, priority 2021, dated 2025)", "key": {"[1]": {"system": "global H3K18 and H3K27 acetylation", "assay": "Western blot for H3 acetylation markers in Kitra-SRS cells", "type": "cell-based, human", "details": "18 hours", "experimental": "For western blot analyses, cells were lysed with RIPA buffer supplemented with protease inhibitor cocktail (Complete, Roche), and proteins were separated on 10% SDS-PAGE gels, then transferred to PVDF membranes. Antibodies were diluted in 5% skim milk in TBST and incubated overnight at 4° C. or 1 hour at RT. An appropriate secondary HRP conjugated antibody was incubated for 1 hour at RT. Membranes were then washed with TBST, and signal was visualized using Pierce ECL western blotting substrate (Thermo Scientific). For immunofluorescence, cells cultured in 96 well plates were fixed in 4% PFA for 10 min., washed twice with PBS, permeabilized with 0.3% Triton X for 30 min, and blocked with 3% BSA for 1 hour at R/T. Primary antibodies were diluted in 3% BSA and incubated o/n at 4° C. An appropriate conjugated secondary antibody was applied for 60 min at RT. Nuclei were visualized using DAPI (1:5000, Sigma). […]"}, "[2]": {"system": "CIC-DUX4 target genes ETV1, 4, and 5", "assay": "RT-qPCR for CIC-DUX4 target genes in NCC-CDS-X1 cells", "type": "cell-based, human", "details": "NCC-CDS-X1, 24 hours, 0.03 and 0.3 μM", "experimental": "RNA was extracted using an RNA extraction kit (Zymo) and cDNA was made using 0.5 μg total RNA with oligo-dT primer and Verso cDNA Synthesis Kit (Thermo Scientific) following the manufacturer's instructions. qPCRs were performed by using Premix Ex Taq (Probe qPCR, Takara) or SYBR-green. Gene expression levels were normalized to that of GAPDH and analyzed with 7500 System Software using the ACT method (Applied Biosystems). RNA-seq library preparation was done with 500 ng total RNA from NCC-CDS-X1 cells treated for 4 or 24 hours with iP300w (0.3 μM) using the Swift Rapid RNA Library Kit (SwiftBioscience). 36 base paired-end sequencing was performed on an Illumina NextSeq instrument at the University of Minnesota Genomics Center.\nNext, the effect of the stereoisomers on the CIC-DUX4 target genes in cells cultured with the compounds for 24 hours was analyzed."}}, "data": [{"smiles": "CNC(=O)Cn1cc(-c2ccc3c(c2)[C@H](F)C[C@]32NC(=O)N(CC(=O)N(Cc3ccc(F)cc3)[C@@H](C)C(F)(F)F)C2=O)cn1", "note": "(single isomer, unassigned) [iP300w]", "values": [{"measurement": "effect on global H3K18 and H3K27 acetylation", "setting": "[1]", "value": "reduces global H3K18 and H3K27 acetylation"}, {"measurement": "down-regulation of direct CIC-DUX4 targets ETV1, 4, and 5", "setting": "[2]", "value": "Significant down-regulation"}]}]}
